Values joined by “and” are separate entries in the source; they are usually repeats but may differ in a detail not shown here. Equal values may be shown once.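 Five compound concentrations were applied to cells in 96-well plates for 48 hours; endpoints were derived by simple linear interpolation of the resulting dose-response curve. GI50: concentration for 50% inhibition of growth. TGI marks complete inhibition of growth.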
Legend:
Assay in all cases: growth of human tumour cells (NCI), 48 h
SK-OV-3 ovarian = system: SK-OV-3 ovarian
IGROV1 ovarian = system: IGROV1 ovarian
NCI-H23 lung = system: NCI-H23 lung
CAKI-1 renal = system: CAKI-1 renal
LOX IMVI melanoma = system: LOX IMVI melanoma
NCI-H226 lung = system: NCI-H226 lung
SK-MEL-2 melanoma = system: SK-MEL-2 melanoma
HT29 colon = system: HT29 colon
COLO 205 colon = system: COLO 205 colon
786-0 renal = system: 786-0 renal

Q: What does the source list for O=C(NCCCCCCCCNC(=O)c1cccc2ccccc12)c1cccc2ccccc12?
A: TGI (SK-OV-3 ovarian): 41.6 µM; TGI (IGROV1 ovarian): > 76.1 µM; TGI (NCI-H23 lung): > 79.6 µM; TGI (CAKI-1 renal): 52.8 µM; TGI (LOX IMVI melanoma): > 100 µM; TGI (NCI-H226 lung): 22.8 µM; TGI (SK-MEL-2 melanoma): > 100 µM; TGI (HT29 colon): > 100 µM; TGI (COLO 205 colon): > 100 µM; TGI (786-0 renal): 23.3 µM

Q: With O=C1c2c(O)cc(O)cc2OC(c2ccc(O)cc2O)C1O (stereo not given) as the molecule, how does the GI50 (SK-OV-3 ovarian) read?
A: > 100 µM

Q: And the TGI (SK-OV-3 ovarian)?
A: > 100 µM

Q: What about the GI50 (IGROV1 ovarian) of the same molecule?
A: > 100 µM

Q: And the TGI (IGROV1 ovarian)?
A: > 100 µM

Q: What about the TGI (NCI-H23 lung) of the same molecule?
A: > 100 µM

Q: And the TGI (CAKI-1 renal)?
A: > 100 µM

Q: What about the GI50 (LOX IMVI melanoma) of the same molecule?
A: > 100 µM

Q: And the TGI (LOX IMVI melanoma)?
A: > 100 µM

Q: And the GI50 (NCI-H226 lung)?
A: > 100 µM

Q: And the TGI (NCI-H226 lung)?
A: > 100 µM

Q: And the GI50 (SK-MEL-2 melanoma)?
A: > 100 µM

Q: And the TGI (SK-MEL-2 melanoma)?
A: > 100 µM

Q: And the GI50 (HT29 colon)?
A: > 100 µM

Q: What about the TGI (HT29 colon) of the same molecule?
A: > 100 µM

Q: And the GI50 (COLO 205 colon)?
A: > 100 µM

Q: What about the TGI (COLO 205 colon) of the same molecule?
A: > 100 µM

Q: And the GI50 (786-0 renal)?
A: > 100 µM

Q: And the TGI (786-0 renal)?
A: > 100 µM

Q: Which results are given for COc1ccc(C(=O)/C=C/c2ccc(OCC(=O)N3CCN(c4ccccc4)CC3)cc2)cc1?
A: TGI (SK-OV-3 ovarian): 66 µM; TGI (IGROV1 ovarian): > 65.8 µM; TGI (NCI-H23 lung): > 100 µM; TGI (CAKI-1 renal): > 100 µM; TGI (LOX IMVI melanoma): > 100 µM; TGI (NCI-H226 lung): > 100 µM; TGI (SK-MEL-2 melanoma): > 100 µM; TGI (HT29 colon): > 100 µM; TGI (COLO 205 colon): > 75.2 µM; TGI (786-0 renal): > 77.3 µM

Q: Cn1c(=S)c2[nH]c(SCCN3CCCC3)nc2n(C)c1=O was tested. Which TGI (SK-OV-3 ovarian) did it give?
A: > 100 µM

Q: And the TGI (IGROV1 ovarian)?
A: > 100 µM

Q: And the TGI (NCI-H23 lung)?
A: > 100 µM

Q: What about the TGI (CAKI-1 renal) of the same molecule?
A: > 100 µM

Q: What about the TGI (LOX IMVI melanoma) of the same molecule?
A: > 100 µM

Q: And the TGI (NCI-H226 lung)?
A: > 100 µM

Q: And the TGI (SK-MEL-2 melanoma)?
A: > 100 µM

Q: And the TGI (HT29 colon)?
A: > 100 µM

Q: What about the TGI (COLO 205 colon) of the same molecule?
A: > 100 µM

Q: What about the TGI (786-0 renal) of the same molecule?
A: > 100 µM

Q: Which results are given for CNC1C(O)C(OC2C(N)CC(N)C(OC3OC(C(C)O)C(O)C(O)C3N)C2O)OCC1(C)O (stereo not given)?
A: TGI (SK-OV-3 ovarian): > 100 µM; TGI (IGROV1 ovarian): > 100 µM; TGI (NCI-H23 lung): > 100 µM; TGI (CAKI-1 renal): > 100 µM; TGI (LOX IMVI melanoma): > 100 µM; TGI (NCI-H226 lung): > 100 µM; TGI (SK-MEL-2 melanoma): > 100 µM; TGI (HT29 colon): > 100 µM; TGI (COLO 205 colon): > 100 µM; TGI (786-0 renal): > 100 µM

Q: Which GI50 (SK-OV-3 ovarian) does the source give for C/C(Cc1ccc(Cl)cc1)=C(/c1ccc(Cl)cc1)c1ccc(OCCN(C)C)cc1 here?
A: 5.42 µM

Q: What about the TGI (SK-OV-3 ovarian) of the same molecule?
A: 10.5 µM

Q: What about the GI50 (IGROV1 ovarian) of the same molecule?
A: 3.73 µM

Q: And the TGI (IGROV1 ovarian)?
A: 8.56 µM

Q: What about the GI50 (NCI-H23 lung) of the same molecule?
A: 4.54 µM

Q: What about the TGI (NCI-H23 lung) of the same molecule?
A: 9.14 µM

Q: What about the GI50 (CAKI-1 renal) of the same molecule?
A: 4.63 µM

Q: And the TGI (CAKI-1 renal)?
A: 8.98 µM

Q: And the GI50 (LOX IMVI melanoma)?
A: 3.02 µM

Q: And the TGI (LOX IMVI melanoma)?
A: 7.18 µM

Q: What about the GI50 (NCI-H226 lung) of the same molecule?
A: 4.99 µM

Q: And the TGI (NCI-H226 lung)?
A: 10.5 µM

Q: What about the GI50 (SK-MEL-2 melanoma) of the same molecule?
A: 5.69 µM

Q: What about the TGI (SK-MEL-2 melanoma) of the same molecule?
A: 11.4 µM

Q: What about the GI50 (HT29 colon) of the same molecule?
A: 1.36 µM

Q: And the TGI (HT29 colon)?
A: 5.85 µM

Q: What about the GI50 (COLO 205 colon) of the same molecule?
A: 1 µM

Q: What about the TGI (COLO 205 colon) of the same molecule?
A: 4.53 µM

Q: What about the GI50 (786-0 renal) of the same molecule?
A: 4.55 µM

Q: What about the TGI (786-0 renal) of the same molecule?
A: 9.78 µM

Q: Which TGI (SK-OV-3 ovarian) does the source give for O=C1/C(=C/c2ccccc2)CN(C(=O)OCc2ccccc2)C/C1=C\c1ccccc1 here?
A: 40.5 µM

Q: What about the TGI (IGROV1 ovarian) of the same molecule?
A: 23.8 µM

Q: And the TGI (NCI-H23 lung)?
A: 32.6 µM

Q: And the TGI (CAKI-1 renal)?
A: > 31.6 µM

Q: What about the GI50 (LOX IMVI melanoma) of the same molecule?
A: 1.21 µM

Q: And the TGI (LOX IMVI melanoma)?
A: 2.52 µM and 8.88 µM

Q: And the TGI (NCI-H226 lung)?
A: 35.2 µM

Q: And the TGI (SK-MEL-2 melanoma)?
A: 44.8 µM

Q: And the GI50 (HT29 colon)?
A: 1.87 µM

Q: And the TGI (HT29 colon)?
A: 6.31 µM and 25.5 µM

Q: What about the TGI (COLO 205 colon) of the same molecule?
A: 34.1 µM

Q: What about the TGI (786-0 renal) of the same molecule?
A: 18.5 µM

Q: Which GI50 (SK-OV-3 ovarian) does the source give for Cc1nc2n(c(=O)c1CCN1CCC(c3noc4cc(F)ccc34)CC1)CCCC2 here?
A: > 50 µM

Q: What about the TGI (SK-OV-3 ovarian) of the same molecule?
A: > 50 µM

Q: What about the GI50 (IGROV1 ovarian) of the same molecule?
A: > 50 µM

Q: What about the TGI (IGROV1 ovarian) of the same molecule?
A: > 50 µM

Q: And the GI50 (NCI-H23 lung)?
A: > 50 µM

Q: What about the TGI (NCI-H23 lung) of the same molecule?
A: > 50 µM

Q: And the GI50 (CAKI-1 renal)?
A: > 50 µM

Q: And the TGI (CAKI-1 renal)?
A: > 50 µM

Q: What about the GI50 (LOX IMVI melanoma) of the same molecule?
A: > 50 µM

Q: And the TGI (LOX IMVI melanoma)?
A: > 50 µM

Q: What about the GI50 (NCI-H226 lung) of the same molecule?
A: > 50 µM

Q: What about the TGI (NCI-H226 lung) of the same molecule?
A: > 50 µM

Q: What about the GI50 (SK-MEL-2 melanoma) of the same molecule?
A: > 50 µM

Q: What about the TGI (SK-MEL-2 melanoma) of the same molecule?
A: > 50 µM

Q: And the GI50 (HT29 colon)?
A: > 50 µM

Q: What about the TGI (HT29 colon) of the same molecule?
A: > 50 µM

Q: What about the GI50 (COLO 205 colon) of the same molecule?
A: > 50 µM

Q: And the TGI (COLO 205 colon)?
A: > 50 µM

Q: What about the GI50 (786-0 renal) of the same molecule?
A: > 50 µM

Q: What about the TGI (786-0 renal) of the same molecule?
A: > 50 µM

Q: For O=C1CCc2c(sc3[nH]c(=S)n(Cc4ccccc4)c(=O)c23)C1, which GI50 (SK-OV-3 ovarian) is on record?
A: 2.68 µM

Q: And the TGI (SK-OV-3 ovarian)?
A: 7.05 µM

Q: What about the GI50 (IGROV1 ovarian) of the same molecule?
A: 5.11 µM

Q: And the TGI (IGROV1 ovarian)?
A: > 100 µM

Q: And the GI50 (NCI-H23 lung)?
A: 2.79 µM

Q: What about the TGI (NCI-H23 lung) of the same molecule?
A: 8.6 µM

Q: What about the GI50 (CAKI-1 renal) of the same molecule?
A: 2.54 µM

Q: What about the TGI (CAKI-1 renal) of the same molecule?
A: 8.31 µM

Q: And the GI50 (LOX IMVI melanoma)?
A: 3.38 µM

Q: What about the TGI (LOX IMVI melanoma) of the same molecule?
A: 12.5 µM

Q: And the GI50 (NCI-H226 lung)?
A: 4.05 µM

Q: And the TGI (NCI-H226 lung)?
A: > 100 µM

Q: And the GI50 (SK-MEL-2 melanoma)?
A: 2.49 µM

Q: What about the TGI (SK-MEL-2 melanoma) of the same molecule?
A: 5.81 µM

Q: What about the GI50 (HT29 colon) of the same molecule?
A: 3.84 µM

Q: And the TGI (HT29 colon)?
A: 27 µM

Q: And the GI50 (COLO 205 colon)?
A: 2.36 µM

Q: And the TGI (COLO 205 colon)?
A: 4.99 µM

Q: And the GI50 (786-0 renal)?
A: 4 µM

Q: What about the TGI (786-0 renal) of the same molecule?
A: > 100 µM
